Source: ChEMBL document CHEMBL6127076, “Scaffold hopping-driven optimization for the identification of NLRP3 inhibitors as potential gout therapeutics” (Eur J Med Chem, 2024)
Values after ≈ are worked out from the molar mass of the structure shown. Active and inactive are the calls of the source.

Key:
[1] = Inhibition of NLRP3 inflammasome pathway in human THP-1 cells assessed as inhibition of LPS/MSU-induced IL-1beta secretion
[2] = biological target: Cytochrome P450 2C19 (Homo sapiens, UniProt P33261); test: Inhibition of CYP2C19 (unknown origin); type: ADME
[3] = Plasma stability in human plasma assessed as compound remaining measured after 120 mins; type: ADME, cell-free; settings: read-out: Stability
[4] = biological target: T1, Cytochrome P450 1A2 (Homo sapiens, UniProt P05177); test: Inhibition of CYP1A2 (unknown origin); type: ADME
T1 sequence (P05177 whole entry): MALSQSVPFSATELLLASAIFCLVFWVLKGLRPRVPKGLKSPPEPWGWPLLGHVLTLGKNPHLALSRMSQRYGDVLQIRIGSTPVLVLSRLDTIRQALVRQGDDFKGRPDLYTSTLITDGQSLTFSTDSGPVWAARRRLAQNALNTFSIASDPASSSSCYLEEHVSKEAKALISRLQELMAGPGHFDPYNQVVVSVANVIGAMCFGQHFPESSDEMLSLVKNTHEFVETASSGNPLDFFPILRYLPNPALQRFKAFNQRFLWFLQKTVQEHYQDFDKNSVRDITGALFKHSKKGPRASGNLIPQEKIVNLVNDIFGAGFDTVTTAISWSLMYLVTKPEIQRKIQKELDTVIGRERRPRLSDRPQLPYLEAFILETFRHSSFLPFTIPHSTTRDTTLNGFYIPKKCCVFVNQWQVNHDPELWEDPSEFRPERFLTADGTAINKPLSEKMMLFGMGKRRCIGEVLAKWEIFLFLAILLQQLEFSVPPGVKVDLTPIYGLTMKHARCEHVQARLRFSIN

[5] = Plasma stability in human plasma assessed as compound remaining measured after 15 mins; type: ADME, cell-free; settings: read-out: Stability
[6] = Plasma stability in human plasma assessed as half life; type: ADME, cell-free
[7] = Plasma stability in human plasma assessed as compound remaining measured immediately; type: ADME, cell-free; settings: read-out: Stability
[8] = Plasma stability in human plasma assessed as compound remaining measured after 5 mins; type: ADME, cell-free; settings: read-out: Stability
[9] = Aqueous solubility of the compound in pH 7.4 PBS buffer; type: physicochemical
[10] = biological target: Cytochrome P450 2C9 (Homo sapiens, UniProt P11712); test: Inhibition of CYP2C9 (unknown origin); type: ADME
[11] = biological target: T2, Cytochrome P450 3A4 (Homo sapiens, UniProt P08684); test: Inhibition of CYP3A4 (unknown origin) using testosterone as substrate; type: ADME
[12] = biological target: Cytochrome P450 2D6 (Homo sapiens, UniProt P10635); test: Inhibition of CYP2D6 (unknown origin); type: ADME
[13] = Plasma stability in human plasma assessed as compound remaining measured after 60 mins; type: ADME, cell-free; settings: read-out: Stability
[14] = Plasma stability in human plasma assessed as compound remaining measured after 30 mins; type: ADME, cell-free; settings: read-out: Stability
[15] = biological target: T2, Cytochrome P450 3A4; test: Inhibition of CYP3A4 (unknown origin) using midazolam as substrate; type: ADME
[16] = test system: HEK-293T; test: Cytotoxicity against human HEK293T cells assessed as cell viability at 50 uM measured after 24 hrs by CCK8 assay; type: toxicity, cell-based
[17] = test system: BMDM; test: Effect on pro-IL-1beta expression in Nigericin-induced in C57BL/6J mouse BMDM cells at 3 to 30 uM by immunoblotting analysis; type: functional, cell-based; settings: dose 3-30 µM
[18] = test system: BMDM; test: Effect on ASC expression in Nigericin-induced in C57BL/6J mouse BMDM cells at 3 to 30 uM by immunoblotting analysis; type: functional, cell-based; settings: dose 3-30 µM
[19] = test system: Mus musculus; test: Anti-inflammatory activity against MSU-induced peritonitis mouse model assessed as reduction in IL-1beta secretion in peritoneal cavity at 30 mg/kg, treated by gavage 30 mins before MSU induction measured after 6 hrs modeling by ELISA; type: functional, organism-based; settings: route po
[20] = test system: THP-1-M; test: Effect on ROS generation in Nigericin-induced human THP-1-M cells assessed as effect on increase in ROS generation by MitoSOX staining based confocal microscopic analysis; type: functional, cell-based
[21] = test system: Mus musculus; test: Anti-inflammatory activity against MSU-induced peritonitis mouse model assessed as reduction in IL-1beta secretion in peritoneal cavity treated by gavage 30 mins before MSU induction measured after 6 hrs modeling by ELISA; type: functional, organism-based; settings: dose 5-30 mg/kg, route po
[22] = test system: Mus musculus; test: Anti-arthritis activity against MSU-induced arthritis mouse model assessed as decrease in decrease in swelling in joint treated by gavage 30 mins before MSU induction measured for 7 days; type: functional, organism-based; settings: dose 5-30 mg/kg, route po, time 7.0 day
[23] = test system: THP-1-M; test: Effect on mitochondrial damage in Nigericin-induced human THP-1-M cells by MitoTracker staining based confocal microscopic analysis; type: functional, cell-based
[24] = test system: BMDM; test: Effect on pro-caspase 1 expression in Nigericin-induced in C57BL/6J mouse BMDM cells at 3 to 30 uM by immunoblotting analysis; type: functional, cell-based; settings: dose 3-30 µM
[25] = test system: Mus musculus; test: Anti-arthritis activity against MSU-induced arthritis mouse model assessed as decrease in von Frey pain threshold treated by gavage 30 mins before MSU induction measured for day 3 to day 7; type: functional, organism-based; settings: dose 5-30 mg/kg, route po, time 3-7 day
[26] = test system: BMDM; test: Effect on NEK7 expression in Nigericin-induced in C57BL/6J mouse BMDM cells at 3 to 30 uM by immunoblotting analysis; type: functional, cell-based; settings: dose 3-30 µM
[27] = test system: BMDM; test: Effect on NLPR3 expression in Nigericin-induced in C57BL/6J mouse BMDM cells at 3 to 30 uM by immunoblotting analysis; type: functional, cell-based; settings: dose 3-30 µM
[28] = test system: HEK-293T; test: Cytotoxicity against human HEK293T cells assessed as cell viability at 0.39 to 50 uM measured after 24 hrs by CCK8 assay; type: toxicity, cell-based; settings: dose 0.39-50 µM

Sequence of Cytochrome P450 2D6 (P10635 whole entry): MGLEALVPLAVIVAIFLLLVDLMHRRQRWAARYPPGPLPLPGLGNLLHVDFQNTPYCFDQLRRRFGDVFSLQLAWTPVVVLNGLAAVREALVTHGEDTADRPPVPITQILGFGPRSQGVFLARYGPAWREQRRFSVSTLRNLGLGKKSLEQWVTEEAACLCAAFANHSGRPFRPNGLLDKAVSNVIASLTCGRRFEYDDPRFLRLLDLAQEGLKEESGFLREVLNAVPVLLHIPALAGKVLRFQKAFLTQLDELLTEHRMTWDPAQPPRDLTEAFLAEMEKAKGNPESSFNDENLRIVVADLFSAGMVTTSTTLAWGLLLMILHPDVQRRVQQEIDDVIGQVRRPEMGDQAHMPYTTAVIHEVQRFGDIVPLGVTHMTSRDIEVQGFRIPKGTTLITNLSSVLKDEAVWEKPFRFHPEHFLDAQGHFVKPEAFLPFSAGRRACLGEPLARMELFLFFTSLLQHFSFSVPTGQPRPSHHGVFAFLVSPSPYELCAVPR
Sequence of Cytochrome P450 2C9 (P11712 whole entry): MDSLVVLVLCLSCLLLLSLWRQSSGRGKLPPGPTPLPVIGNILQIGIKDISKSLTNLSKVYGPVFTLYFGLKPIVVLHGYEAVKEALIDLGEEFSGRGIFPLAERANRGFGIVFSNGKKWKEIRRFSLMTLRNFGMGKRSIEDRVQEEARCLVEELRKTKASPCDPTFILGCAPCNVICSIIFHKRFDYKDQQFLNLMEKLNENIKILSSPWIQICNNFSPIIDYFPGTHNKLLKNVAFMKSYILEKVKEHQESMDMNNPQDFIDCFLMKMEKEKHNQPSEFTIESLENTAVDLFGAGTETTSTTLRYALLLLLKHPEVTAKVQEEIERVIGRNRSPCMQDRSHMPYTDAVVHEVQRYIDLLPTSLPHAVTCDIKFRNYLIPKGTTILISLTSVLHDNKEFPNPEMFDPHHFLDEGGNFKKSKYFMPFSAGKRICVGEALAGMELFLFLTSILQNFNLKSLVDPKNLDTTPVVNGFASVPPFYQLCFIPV
Sequence of Cytochrome P450 2C19 (P33261 whole entry): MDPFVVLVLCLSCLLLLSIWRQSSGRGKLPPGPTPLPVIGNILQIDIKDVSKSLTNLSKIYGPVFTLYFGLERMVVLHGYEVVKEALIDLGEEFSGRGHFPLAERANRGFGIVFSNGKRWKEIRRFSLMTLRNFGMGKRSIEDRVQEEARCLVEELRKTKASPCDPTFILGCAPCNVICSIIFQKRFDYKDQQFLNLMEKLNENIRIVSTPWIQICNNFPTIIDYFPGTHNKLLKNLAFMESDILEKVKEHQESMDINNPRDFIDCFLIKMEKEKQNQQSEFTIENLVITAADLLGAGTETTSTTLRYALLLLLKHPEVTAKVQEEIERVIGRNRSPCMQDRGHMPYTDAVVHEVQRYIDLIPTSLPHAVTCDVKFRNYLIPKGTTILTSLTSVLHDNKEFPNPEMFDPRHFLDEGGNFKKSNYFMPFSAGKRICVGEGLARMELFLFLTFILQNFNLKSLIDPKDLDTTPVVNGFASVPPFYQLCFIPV
T2 sequence (P08684 whole entry): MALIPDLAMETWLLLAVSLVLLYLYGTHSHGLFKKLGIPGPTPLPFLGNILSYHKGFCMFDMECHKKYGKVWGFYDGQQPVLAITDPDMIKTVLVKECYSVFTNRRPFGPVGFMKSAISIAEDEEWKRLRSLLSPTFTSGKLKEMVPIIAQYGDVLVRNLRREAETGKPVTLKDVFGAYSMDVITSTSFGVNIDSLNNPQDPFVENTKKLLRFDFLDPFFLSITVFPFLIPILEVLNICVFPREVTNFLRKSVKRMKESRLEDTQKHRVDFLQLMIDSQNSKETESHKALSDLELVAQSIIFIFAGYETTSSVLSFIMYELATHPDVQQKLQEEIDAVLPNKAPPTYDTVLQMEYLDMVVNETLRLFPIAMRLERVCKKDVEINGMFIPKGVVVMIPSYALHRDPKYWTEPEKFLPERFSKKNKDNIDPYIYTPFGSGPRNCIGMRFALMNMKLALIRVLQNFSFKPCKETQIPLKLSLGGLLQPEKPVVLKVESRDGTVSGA

With `COc1ccc(N2C(=O)C(C)(C)N(Cc3cccc(C(F)(F)F)c3)C2=S)cc1` as the compound, how does the IC50 [1] read?
Its IC50 is greater than 20 µM.

Which IC50 [1] does the source give for `COc1ccc(N2C(=O)C(C)(C)N(Cc3ccccc3C(F)(F)F)C2=S)cc1` here?
Its IC50 is 29.2 µM.

With `CC(C)(C)c1ccc(N2C(=O)C(C)(C)N(Cc3ccc(S(N)(=O)=O)c(F)c3)C2=S)cc1` as the compound, how does the IC50 [2] read?
The IC50 was greater than 10 µM.

What about the remaining at 2 h [3] of the same compound?
Its remaining at 2 h is 82.5%.

And the IC50 [4]?
The IC50 was greater than 100 µM.

And the remaining at 0.25 h [5]?
Its remaining at 0.25 h is 89.8%.

What about the half-life [6] of the same compound?
Its half-life is 602 min.

What about the remaining at 0 min [7] of the same compound?
Its remaining at 0 min is 100%.

What about the remaining at 5 min [8] of the same compound?
Its remaining at 5 min is 96.7%.

What about the solubility [9] of the same compound?
Its solubility is 19.3 µM (≈ 8.95 µg/mL).

What about the IC50 [1] of the same compound?
The IC50 was 6.4 µM.

What about the IC50 [10] of the same compound?
The IC50 was greater than 10 µM.

What about the IC50 [11] of the same compound?
Its IC50 is greater than 10 µM.

What about the IC50 [12] of the same compound?
Its IC50 is greater than 10 µM.

And the remaining at 1 h [13]?
The remaining at 1 h was 100%.

And the remaining at 0.5 h [14]?
Its remaining at 0.5 h is 98.2%.

And the IC50 [15]?
Its IC50 is greater than 10 µM.

And the Activity [16]?
The Activity was “Toxic”.

Which IC50 [1] does the source give for `CC(C)(C)c1ccc(N2C(=O)C(C)(C)N(Cc3ccc(C(=O)O)cc3)C2=S)cc1` here?
The IC50 was greater than 20 µM.

With `COc1ccc(N2C(=O)C(C)(C)N(Cc3cc(C(F)(F)F)ccc3C(F)(F)F)C2=S)cc1` as the compound, how does the IC50 [1] read?
The IC50 was greater than 20 µM.

For `COc1ccccc1N1C(=O)C(C)(C)N(Cc2ccc(C)c(C)c2)C1=S`, which IC50 [1] is on record?
The IC50 was greater than 20 µM.

What does the source list for `COc1ccc(N2C(=O)C(C)(C)N(Cc3ccc(C)c(C)c3)C2=S)cc1`?
IC50 [2]: 2.95 µM; remaining at 2 h [3]: 102%; IC50 [4]: > 100 µM; remaining at 0.25 h [5]: 105%; remaining at 0 min [7]: 100%; remaining at 5 min [8]: 98.9%; solubility [9]: 0.017 µM (≈ 0.00626 µg/mL); IC50 [1]: 6.9 µM; IC50 [10]: 4.57 µM; IC50 [11]: > 10 µM; IC50 [12]: > 10 µM; remaining at 1 h [13]: 102%; remaining at 0.5 h [14]: 96.2%; IC50 [15]: > 10 µM; Activity [16]: Toxic

For `COc1ccc(N2C(=O)C(C)(C)N(Cc3ccc(-c4ccccc4C#N)cc3)C2=S)cc1`, which IC50 [1] is on record?
Its IC50 is greater than 20 µM.

Which IC50 [1] does the source give for `COc1cccc(N2C(=O)C(C)(C)N(Cc3ccc(C)c(C)c3)C2=S)c1` here?
Its IC50 is greater than 20 µM.

With `COc1ccc(N2C(=O)C(C)(C)N(C(=O)c3ccccc3C(F)(F)F)C2=S)cc1` as the compound, how does the IC50 [1] read?
The IC50 was greater than 50 µM.

Which results are given for `CC1(C)C(=O)N(c2ccc(C(F)(F)F)cc2)C(=S)N1Cc1ccc(S(N)(=O)=O)c(F)c1`?
Activity [17]: inactive; IC50 [2]: > 10 µM; Activity [18]: inactive; Activity [19]: Active; remaining at 2 h [3]: 96.9%; Activity [20]: inactive; Activity [21]: Dose-Dependent Effect; IC50 [4]: > 100 µM; Activity [22]: Dose-Dependent Effect; remaining at 0.25 h [5]: 99.5%; Activity [23]: inactive; remaining at 0 min [7]: 100%; remaining at 5 min [8]: 100%; Activity [24]: inactive; Activity [25]: Dose-Dependent Effect; solubility [9]: 53.7 µM (≈ 25.5 µg/mL); IC50 [1]: 4.8 µM; IC50 [10]: > 10 µM; IC50 [11]: > 10 µM; IC50 [12]: > 10 µM; remaining at 1 h [13]: 103%; remaining at 0.5 h [14]: 104%; IC50 [15]: > 10 µM; Activity [26]: inactive; Activity [27]: inactive; Activity [28]: Non-Toxic

Which IC50 [1] does the source give for `Cc1ccc(CN2C(=S)N(c3cccc(OCc4ccccc4)c3)C(=O)C2(C)C)cc1C` here?
Its IC50 is greater than 20 µM.

Which results are given for `Cc1ccc(CN2C(=S)N(c3ccc(C(C)(C)C)cc3)C(=O)C2(C)C)cc1C`?
IC50 [2]: 5.64 µM; remaining at 2 h [3]: 93.6%; IC50 [4]: > 100 µM; remaining at 0.25 h [5]: 103%; half-life [6]: 1950 min; remaining at 0 min [7]: 100%; remaining at 5 min [8]: 99.8%; solubility [9]: 0.089 µM (≈ 0.0351 µg/mL); IC50 [1]: 4.3 µM; IC50 [10]: > 10 µM; IC50 [11]: > 10 µM; IC50 [12]: > 10 µM; remaining at 1 h [13]: 113%; remaining at 0.5 h [14]: 102%; IC50 [15]: > 10 µM; Activity [16]: Toxic

Which IC50 [1] does the source give for `COc1ccc(N2C(=O)C(C)(C)N(Cc3ccc(C(F)(F)F)cc3)C2=S)cc1` here?
Its IC50 is 13 µM.

With `CC(C)(C)c1ccc(N2C(=O)C(C)(C)N(Cc3ccc(C#N)c(Cl)c3)C2=S)cc1` as the compound, how does the IC50 [1] read?
Its IC50 is greater than 20 µM.
